Experimental data published in ChEMBL document CHEMBL5291721, “A preclinical secondary pharmacology resource illuminates target-adverse drug reaction associations of marketed drugs” (Nat Commun, 2023).

Columns and labels:
[1] = target: Vasopressin V2 receptor (Homo sapiens, UniProt P30518)
[2] = target: Histamine H1 receptor (Homo sapiens, UniProt P35367)
[3] = target: Gamma-aminobutyric acid receptor subunit alpha-1 (Rattus norvegicus, UniProt P62813)
[4] = target: 5-hydroxytryptamine receptor 2B (Homo sapiens, UniProt P41595); format: functional, cell-based
5-hydroxytryptamine receptor 2B, sequence (P41595 whole entry): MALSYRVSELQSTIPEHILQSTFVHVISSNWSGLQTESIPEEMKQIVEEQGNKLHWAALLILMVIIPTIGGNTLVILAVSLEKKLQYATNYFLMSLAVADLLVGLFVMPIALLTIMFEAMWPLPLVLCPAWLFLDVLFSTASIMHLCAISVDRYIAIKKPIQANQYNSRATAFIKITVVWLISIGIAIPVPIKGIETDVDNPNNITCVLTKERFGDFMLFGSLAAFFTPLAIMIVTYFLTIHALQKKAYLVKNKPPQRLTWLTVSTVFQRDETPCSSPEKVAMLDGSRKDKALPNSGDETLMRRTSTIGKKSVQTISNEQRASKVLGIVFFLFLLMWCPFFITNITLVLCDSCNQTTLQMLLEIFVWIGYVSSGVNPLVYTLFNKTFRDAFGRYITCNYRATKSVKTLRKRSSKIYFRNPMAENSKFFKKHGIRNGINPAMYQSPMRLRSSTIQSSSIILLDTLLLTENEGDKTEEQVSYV

[5] = target: Glutamate receptor ionotropic, NMDA 1 (Rattus norvegicus, UniProt P35439)
[6] = target: T1, Alpha-1A adrenergic receptor (Homo sapiens, UniProt P35348); format: functional, cell-based
T1 sequence (P35348 whole entry): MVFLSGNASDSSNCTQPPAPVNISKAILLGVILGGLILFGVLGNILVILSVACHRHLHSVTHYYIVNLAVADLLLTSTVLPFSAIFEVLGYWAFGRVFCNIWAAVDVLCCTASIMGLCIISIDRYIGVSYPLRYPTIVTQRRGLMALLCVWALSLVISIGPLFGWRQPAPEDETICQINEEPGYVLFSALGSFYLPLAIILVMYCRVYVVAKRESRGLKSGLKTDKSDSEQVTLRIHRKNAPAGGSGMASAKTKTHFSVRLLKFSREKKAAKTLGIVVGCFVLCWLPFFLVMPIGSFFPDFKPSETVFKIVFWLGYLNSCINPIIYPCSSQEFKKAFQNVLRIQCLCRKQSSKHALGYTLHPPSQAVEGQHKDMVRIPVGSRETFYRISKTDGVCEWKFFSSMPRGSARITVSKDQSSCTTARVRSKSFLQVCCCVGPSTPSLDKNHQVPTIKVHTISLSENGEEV

[7] = target: Voltage-dependent L-type calcium channel subunit alpha-1C (Rattus norvegicus, UniProt P22002); format: functional
[8] = target: T2, Progesterone receptor (Homo sapiens, UniProt P06401); format: functional
T2 sequence (P06401 whole entry): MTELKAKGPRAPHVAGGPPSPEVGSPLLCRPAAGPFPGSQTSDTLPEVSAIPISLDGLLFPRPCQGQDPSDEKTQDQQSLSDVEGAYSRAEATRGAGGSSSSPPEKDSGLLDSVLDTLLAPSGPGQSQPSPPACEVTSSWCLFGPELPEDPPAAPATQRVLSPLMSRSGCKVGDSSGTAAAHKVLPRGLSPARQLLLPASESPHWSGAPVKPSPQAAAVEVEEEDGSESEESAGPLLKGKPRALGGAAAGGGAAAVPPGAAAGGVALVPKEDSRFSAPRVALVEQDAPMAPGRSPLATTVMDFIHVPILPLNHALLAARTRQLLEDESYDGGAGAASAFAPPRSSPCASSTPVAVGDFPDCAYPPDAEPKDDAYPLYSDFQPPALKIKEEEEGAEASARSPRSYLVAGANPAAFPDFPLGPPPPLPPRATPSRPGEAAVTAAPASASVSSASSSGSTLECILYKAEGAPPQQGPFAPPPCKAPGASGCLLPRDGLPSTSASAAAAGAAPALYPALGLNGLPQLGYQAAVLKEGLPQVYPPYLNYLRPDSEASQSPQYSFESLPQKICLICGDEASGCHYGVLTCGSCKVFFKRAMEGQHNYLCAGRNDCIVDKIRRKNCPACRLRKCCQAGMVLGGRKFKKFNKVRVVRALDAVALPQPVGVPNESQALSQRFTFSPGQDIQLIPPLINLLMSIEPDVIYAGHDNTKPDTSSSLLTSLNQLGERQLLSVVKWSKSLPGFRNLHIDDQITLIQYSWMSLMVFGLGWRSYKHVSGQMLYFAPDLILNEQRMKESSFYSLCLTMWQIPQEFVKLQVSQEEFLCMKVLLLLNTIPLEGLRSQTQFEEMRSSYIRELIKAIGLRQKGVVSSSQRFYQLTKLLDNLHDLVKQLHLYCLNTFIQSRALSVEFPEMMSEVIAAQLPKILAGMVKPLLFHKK

[9] = target: T3, Amine oxidase [flavin-containing] A (Homo sapiens, UniProt P21397); format: functional
T3 sequence (P21397 whole entry): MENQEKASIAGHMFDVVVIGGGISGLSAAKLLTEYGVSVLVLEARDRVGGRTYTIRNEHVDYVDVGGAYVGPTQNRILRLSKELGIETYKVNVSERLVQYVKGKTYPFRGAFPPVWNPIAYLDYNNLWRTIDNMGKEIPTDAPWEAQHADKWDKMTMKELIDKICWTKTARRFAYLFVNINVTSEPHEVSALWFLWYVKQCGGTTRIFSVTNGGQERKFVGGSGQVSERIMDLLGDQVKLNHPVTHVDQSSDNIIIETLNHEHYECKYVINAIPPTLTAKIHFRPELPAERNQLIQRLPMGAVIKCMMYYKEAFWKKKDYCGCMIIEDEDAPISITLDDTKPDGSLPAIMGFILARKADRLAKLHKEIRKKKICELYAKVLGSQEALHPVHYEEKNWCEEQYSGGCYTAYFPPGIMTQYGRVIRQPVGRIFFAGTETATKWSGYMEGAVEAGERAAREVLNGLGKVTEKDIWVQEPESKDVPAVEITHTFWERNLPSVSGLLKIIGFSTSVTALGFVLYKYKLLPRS

[10] = target: T4, Alpha-2A adrenergic receptor (Homo sapiens, UniProt P08913)
T4 sequence (P08913 whole entry): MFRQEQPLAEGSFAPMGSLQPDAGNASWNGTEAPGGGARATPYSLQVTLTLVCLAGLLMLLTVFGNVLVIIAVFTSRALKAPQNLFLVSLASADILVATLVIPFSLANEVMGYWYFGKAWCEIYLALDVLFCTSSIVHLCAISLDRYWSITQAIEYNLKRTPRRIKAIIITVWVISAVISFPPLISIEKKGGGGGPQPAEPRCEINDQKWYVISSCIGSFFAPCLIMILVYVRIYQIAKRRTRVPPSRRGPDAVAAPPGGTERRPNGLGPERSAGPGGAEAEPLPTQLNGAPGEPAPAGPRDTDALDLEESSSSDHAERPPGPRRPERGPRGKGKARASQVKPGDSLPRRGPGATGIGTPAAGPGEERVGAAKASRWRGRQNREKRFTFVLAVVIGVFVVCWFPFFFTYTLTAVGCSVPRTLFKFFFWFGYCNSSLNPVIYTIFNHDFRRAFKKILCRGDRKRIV

[11] = target: 3',5'-cyclic-AMP phosphodiesterase 4A (Homo sapiens, UniProt P27815); format: functional
3',5'-cyclic-AMP phosphodiesterase 4A, sequence (P27815 whole entry): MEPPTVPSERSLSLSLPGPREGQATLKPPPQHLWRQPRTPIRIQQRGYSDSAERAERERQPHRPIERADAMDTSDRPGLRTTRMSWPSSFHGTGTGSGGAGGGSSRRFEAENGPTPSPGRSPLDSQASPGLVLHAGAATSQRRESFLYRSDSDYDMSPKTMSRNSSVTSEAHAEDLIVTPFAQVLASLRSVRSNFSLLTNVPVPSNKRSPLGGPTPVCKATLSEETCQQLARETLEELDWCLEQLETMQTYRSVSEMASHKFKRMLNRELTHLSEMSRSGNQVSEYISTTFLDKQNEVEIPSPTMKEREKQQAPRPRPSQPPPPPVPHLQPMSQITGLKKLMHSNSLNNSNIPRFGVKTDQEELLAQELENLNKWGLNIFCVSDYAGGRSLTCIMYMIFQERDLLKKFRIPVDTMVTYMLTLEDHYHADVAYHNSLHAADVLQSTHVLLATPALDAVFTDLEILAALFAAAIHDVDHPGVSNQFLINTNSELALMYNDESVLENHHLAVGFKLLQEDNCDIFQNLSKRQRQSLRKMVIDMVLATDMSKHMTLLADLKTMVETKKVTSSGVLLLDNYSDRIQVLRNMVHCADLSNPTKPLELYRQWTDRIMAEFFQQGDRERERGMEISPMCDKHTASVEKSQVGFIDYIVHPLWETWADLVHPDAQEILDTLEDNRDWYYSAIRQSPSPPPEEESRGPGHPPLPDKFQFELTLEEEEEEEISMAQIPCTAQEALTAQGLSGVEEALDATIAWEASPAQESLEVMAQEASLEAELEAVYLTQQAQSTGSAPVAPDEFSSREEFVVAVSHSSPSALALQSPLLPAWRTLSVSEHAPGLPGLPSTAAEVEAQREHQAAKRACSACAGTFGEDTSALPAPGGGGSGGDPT

[12] = target: Histamine H3 receptor (Homo sapiens, UniProt Q9Y5N1)
Histamine H3 receptor, sequence (Q9Y5N1 whole entry): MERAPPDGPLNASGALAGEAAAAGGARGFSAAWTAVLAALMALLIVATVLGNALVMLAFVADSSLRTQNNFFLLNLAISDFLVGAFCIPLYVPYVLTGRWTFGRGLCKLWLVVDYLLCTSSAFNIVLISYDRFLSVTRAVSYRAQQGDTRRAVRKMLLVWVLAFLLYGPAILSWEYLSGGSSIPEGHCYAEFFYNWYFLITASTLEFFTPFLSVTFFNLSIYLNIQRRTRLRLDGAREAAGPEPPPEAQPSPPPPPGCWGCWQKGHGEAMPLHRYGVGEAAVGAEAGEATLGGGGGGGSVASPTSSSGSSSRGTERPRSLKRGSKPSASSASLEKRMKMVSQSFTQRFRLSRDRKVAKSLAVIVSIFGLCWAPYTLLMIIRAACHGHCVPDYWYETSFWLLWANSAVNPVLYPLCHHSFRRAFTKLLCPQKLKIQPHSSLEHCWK

[13] = target: Sodium-dependent noradrenaline transporter (Homo sapiens, UniProt P23975)
Sodium-dependent noradrenaline transporter, sequence (P23975 whole entry): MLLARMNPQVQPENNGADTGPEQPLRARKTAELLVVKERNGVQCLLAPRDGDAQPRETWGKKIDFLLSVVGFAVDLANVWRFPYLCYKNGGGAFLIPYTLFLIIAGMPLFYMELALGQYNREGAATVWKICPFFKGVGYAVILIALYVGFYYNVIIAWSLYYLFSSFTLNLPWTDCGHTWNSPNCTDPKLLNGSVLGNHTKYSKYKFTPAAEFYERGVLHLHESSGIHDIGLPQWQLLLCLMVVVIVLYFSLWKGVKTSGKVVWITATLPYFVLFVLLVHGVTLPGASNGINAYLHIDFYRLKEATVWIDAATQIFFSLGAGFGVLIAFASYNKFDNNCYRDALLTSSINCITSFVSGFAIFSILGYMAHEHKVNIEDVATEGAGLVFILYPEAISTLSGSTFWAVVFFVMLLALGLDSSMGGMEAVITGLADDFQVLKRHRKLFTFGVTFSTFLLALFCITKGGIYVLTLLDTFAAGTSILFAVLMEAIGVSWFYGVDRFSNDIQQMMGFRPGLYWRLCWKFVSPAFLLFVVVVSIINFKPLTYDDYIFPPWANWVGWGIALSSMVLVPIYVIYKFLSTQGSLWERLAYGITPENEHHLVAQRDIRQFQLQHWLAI

[14] = target: Cannabinoid receptor 1 (Homo sapiens, UniProt P21554)
Cannabinoid receptor 1, sequence (P21554 whole entry): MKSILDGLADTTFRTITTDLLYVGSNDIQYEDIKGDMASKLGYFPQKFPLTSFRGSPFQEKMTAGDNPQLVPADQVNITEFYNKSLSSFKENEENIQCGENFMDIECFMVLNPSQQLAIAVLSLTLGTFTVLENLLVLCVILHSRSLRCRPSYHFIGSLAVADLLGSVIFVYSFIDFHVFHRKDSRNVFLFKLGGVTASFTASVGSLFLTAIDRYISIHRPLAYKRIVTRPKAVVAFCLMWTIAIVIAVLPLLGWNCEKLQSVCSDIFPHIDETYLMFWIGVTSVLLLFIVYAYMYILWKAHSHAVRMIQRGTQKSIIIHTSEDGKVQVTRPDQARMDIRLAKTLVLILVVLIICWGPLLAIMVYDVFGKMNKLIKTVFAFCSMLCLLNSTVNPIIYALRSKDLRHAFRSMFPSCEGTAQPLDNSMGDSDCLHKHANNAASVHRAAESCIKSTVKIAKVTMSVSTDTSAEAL
Note: assay procedure not described here.

Histamine H1 receptor, sequence (P35367 whole entry): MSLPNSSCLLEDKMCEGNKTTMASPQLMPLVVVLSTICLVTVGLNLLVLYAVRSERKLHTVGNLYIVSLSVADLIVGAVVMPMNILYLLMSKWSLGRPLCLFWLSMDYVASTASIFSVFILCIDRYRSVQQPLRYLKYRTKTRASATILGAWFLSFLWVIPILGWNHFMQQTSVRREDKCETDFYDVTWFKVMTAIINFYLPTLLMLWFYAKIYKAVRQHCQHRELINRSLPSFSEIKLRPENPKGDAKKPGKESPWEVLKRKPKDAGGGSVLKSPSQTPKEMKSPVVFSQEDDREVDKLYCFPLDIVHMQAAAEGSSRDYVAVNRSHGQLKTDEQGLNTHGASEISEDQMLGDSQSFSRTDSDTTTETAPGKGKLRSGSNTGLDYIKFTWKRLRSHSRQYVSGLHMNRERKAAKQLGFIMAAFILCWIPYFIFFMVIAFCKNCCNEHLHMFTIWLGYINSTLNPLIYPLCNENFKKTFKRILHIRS
Gamma-aminobutyric acid receptor subunit alpha-1, sequence (P62813 whole entry): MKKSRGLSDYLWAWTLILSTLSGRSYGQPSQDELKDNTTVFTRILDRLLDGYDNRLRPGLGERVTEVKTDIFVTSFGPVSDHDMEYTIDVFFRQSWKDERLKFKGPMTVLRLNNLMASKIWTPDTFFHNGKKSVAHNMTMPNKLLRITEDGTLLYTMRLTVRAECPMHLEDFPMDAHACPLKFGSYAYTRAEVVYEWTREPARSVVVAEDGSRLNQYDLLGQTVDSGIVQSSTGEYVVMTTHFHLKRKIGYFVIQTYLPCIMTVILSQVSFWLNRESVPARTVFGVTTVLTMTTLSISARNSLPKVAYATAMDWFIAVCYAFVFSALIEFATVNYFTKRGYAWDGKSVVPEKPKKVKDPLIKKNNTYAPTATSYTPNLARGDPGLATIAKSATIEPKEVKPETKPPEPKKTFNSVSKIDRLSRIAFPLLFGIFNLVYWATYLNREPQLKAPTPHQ
Vasopressin V2 receptor, sequence (P30518 whole entry): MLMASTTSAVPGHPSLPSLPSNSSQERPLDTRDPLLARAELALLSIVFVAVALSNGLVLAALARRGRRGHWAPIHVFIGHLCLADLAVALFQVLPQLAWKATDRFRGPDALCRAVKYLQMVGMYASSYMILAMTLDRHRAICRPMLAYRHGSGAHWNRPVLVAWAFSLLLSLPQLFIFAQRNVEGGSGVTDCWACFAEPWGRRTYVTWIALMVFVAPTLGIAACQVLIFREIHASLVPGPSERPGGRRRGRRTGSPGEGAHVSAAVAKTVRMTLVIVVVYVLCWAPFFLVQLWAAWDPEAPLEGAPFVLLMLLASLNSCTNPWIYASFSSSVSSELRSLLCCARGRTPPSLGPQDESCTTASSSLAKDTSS

| SMILES | AC50 [1] [µM] | AC50 [2] [µM] | AC50 [3] [µM] | AC50 [4] [µM] | AC50 [5] [µM] | AC50 [6] [µM] | AC50 [7] [µM] | AC50 [8] [µM] | AC50 [9] [µM] | AC50 [10] [µM] | AC50 [11] [µM] | AC50 [12] [µM] | AC50 [13] [µM] | AC50 [14] [µM] |
| --- | --- | --- | --- | --- | --- | --- | --- | --- | --- | --- | --- | --- | --- | --- |
| CN1C(C(=O)Nc2ccccn2)=C(O)c2sc(Cl)cc2S1(=O)=O [LORNOXICAM] | > 30 | > 10 | > 10 | > 10 | > 10 | > 30 | > 10 |  |  |  |  |  |  |  |
| CNC1Cc2ccccc2N(C)c2ccccc21 (stereo unspecified) [METAPRAMINE] |  | 0.34 |  |  |  | 3.4 |  | > 30 |  |  |  |  |  |  |
| Cc1nc([N+](=O)[O-])cn1-c1ccc([N+](=O)[O-])cc1 [NITREFAZOLE] | > 30 | > 30 | > 30 | > 30 | > 30 | > 30 |  | > 30 |  |  |  |  |  |  |
| CC[C@H]1[C@@H](O)[C@@H]2[C@H](CC[C@]3(C)[C@@H]([C@H](C)CCC(=O)O)CC[C@@H]23)[C@@]2(C)CC[C@@H](O)C[C@@H]12 [OBETICHOLIC ACID] | > 30 | > 30 | > 30 |  | > 30 | 6.3 | > 30 | > 30 | > 30 | > 30 | > 30 | > 30 | > 30 |  |
| COc1ccc(CC(C)(C)NC[C@H](O)c2cc(O)cc3c2OCC(=O)N3)cc1 [OLODATEROL] |  | > 30 |  | 6.65 |  | 0.055 |  | > 30 |  |  |  |  |  |  |
| CCCN1C[C@H](CSC)C[C@@H]2c3cccc4[nH]cc(c34)C[C@H]21 [PERGOLIDE] | > 30 |  | > 10 |  | > 10 |  | > 10 | > 30 |  |  |  |  |  | > 10 |
| C1CCC(C(CC2CCCCN2)C2CCCCC2)CC1 (stereo unspecified) [PERHEXILINE] |  |  |  |  |  | > 10 |  | > 30 |  |  |  |  |  |  |
| c1cnc(N2CCN(Cc3ccc4c(c3)OCO4)CC2)nc1 [PIRIBEDIL] |  | > 30 |  | 2.3 |  | 23 |  | > 30 |  |  |  |  |  |  |
| COCCCN1CCC(NC(=O)c2cc(Cl)c(N)c3c2OCC3)CC1 [PRUCALOPRIDE] |  | > 30 |  | > 30 |  | 15 |  | > 30 | > 30 | > 30 | > 30 | > 30 | > 30 |  |
| Cc1c(C(=O)NN2CCCCC2)nn(-c2ccc(Cl)cc2Cl)c1-c1ccc(Cl)cc1 [RIMONABANT] | > 30 | 22 | > 10 | 14 | > 10 | 11 | 3.19 | > 30 |  |  |  |  |  |  |
| N[C@@H]1[C@H]2CN(c3nc4c(cc3F)c(=O)c(C(=O)O)cn4-c3ccc(F)cc3F)C[C@@H]12 [TROVAFLOXACIN] |  |  |  | > 30 |  | > 30 |  | > 30 |  |  |  |  |  |  |
| Cc1cn([C@H]2C[C@H](N=[N+]=[N-])[C@@H](CO)O2)c(=O)[nH]c1=O [ZIDOVUDINE] | > 30 |  | > 10 | > 10 | > 10 | > 30 | > 10 |  | > 30 | > 30 | > 30 | > 30 | > 30 |  |
